The numbers were not newly measured in patent US20230380414A1, “SYSTEMS, DEVICES AND METHODS FOR DELIVERING AEROSOLIZED FLUOROCARBONS” (BOUNDLESS SCIENCE, LLC, priority 2020, published 2023), which cites them from elsewhere.

For data set [1] the following is noted: cited from earlier work; for Den: Table 1; for Specific Gravity: partial list of fluorinated and perfluorinated liquids.
The conditions of data set [2]: Table 1; cited from earlier work.
For data set [3] the following is noted: cited from earlier work; for Spec. Ht Liq C: liquid.
The conditions of data set [4]: cited from earlier work.
The conditions of data set [5]: cited from earlier work; for Enthalpy of Vap. H: Table 1; for enthalpies of vaporization: running text.
For data set [6] the following is noted: @ 20° C.; cited from earlier work.
For data set [7] the following is noted: Table 1; cited from earlier work. This is another data set of the same source.
The conditions of data set [8]: in water; cited from earlier work.
The mark [9] stands for this setting: Other perfluorinated liquids and their boiling points.
Setting [10] is: partial list of fluorinated and perfluorinated liquids.
[11] abbreviates: commercial hydrofluoroalkanes, unit not given.

Like-named read-outs stand apart in the source and are kept apart here.

On to `FC(F)(F)C(F)(F)C(F)(F)C(F)(F)F` [Perfluorobutane], for which the Den in data set [1] was 1.63 g/mL. Also, the Viscosity in data set [2] is given as 0.012 cPs. The “Spec Ht gas C” value in data set [3] was 0.69 KJ/Kg/C. The “Spec. Ht Liq C” value in data set [3] was 0.53 KJ/Kg/C. Besides, the Boiling point in data set [4] (setting [9]) was −1.7 °C; in data set [4] (Table 1) it was −1.8 °C; in data set [4] (Table 2), −1.7 °C; in data set [4] (Table 4), −1.7 °C; in data set [4], −1.7 C; in data set [4] (listed as perfiiuorobutane) it was −1.7 °C. The “Enthalpy of Vap. H” value in data set [5] was 88 kJ/kg. For the same compound, in data set [5], the enthalpies of vaporization was 88 kJ/kg.
For the compound `FC(F)(F)C(F)(F)C(F)(F)C(F)(F)C(F)(F)N(C(F)(F)C(F)(F)C(F)(F)C(F)(F)C(F)(F)F)C(F)(F)C(F)(F)C(F)(F)C(F)(F)C(F)(F)F` [perfluorotripentyl amine], the Boiling point in data set [4] (setting [9]), in data set [4] (Table 2) and in data set [4] (Table 4) was 215 °C in each case.
As for `FC(F)C(F)(F)C(F)(F)C(F)(F)C(F)(F)C(F)(F)C(F)(F)C(F)(F)F` [1H-Perfluorooctane, Heptadecafluorooctane], the “Boiling point” value in data set [4] (setting [10]) was 117 °C.
For `FC(F)(F)C(F)(F)C(F)(F)C(F)(F)C(F)(F)C(F)(F)F` [Perfluorohexane], the Boiling point in data set [4] (setting [9]), in data set [4] (Table 2) and in data set [4] (Table 4) was 56.0 °C each time.
Consider `COC(F)(F)C(F)(F)C(F)(F)C(F)(F)F` [methyl perfluorobutylether], for which, in data set [4] (setting [9]), the Boiling point was 60 °C.
On to `FC(F)C(F)(F)C(F)(F)C(F)(F)C(F)(F)C(F)(F)F` [1H-Perfluorohexane, Tridecafluorohexane], for which, in data set [4] (setting [10]), the “Boiling point” value is 70 °C.
For the compound `FC(F)C(F)(F)C(F)(F)C(F)(F)C(F)(F)C(F)F` [1H,6H-Perfluorohexane, Dodecafluorohexane], the “Boiling point” value in data set [4] (setting [10]) is 93 °C.
On to `FC(F)C(F)(F)C(F)(F)C(F)(F)C(F)(F)F` [1H-Perfluoropentane, Undecafluoropentane], for which, in data set [4] (setting [10]), the “Boiling point” value was 42 °C.
For `FC(F)(F)C(F)(F)C(F)(F)C(F)(F)C(F)(F)C(F)(F)C(F)(F)C(F)(F)F` [Perfluorooctane, Octadecafluorooctane], the Den in data set [1] was 1.77 g/mL. Besides, the “Specific Gravity” value in data set [1] is reported as 1.73. In addition, in data set [2], the Viscosity is 1.800 cPs. Further, the Boiling point in data set [4] (Table 1) is 377 °C; in data set [4] (Table 2), 103.0 °C; in data set [4] (Table 4) it was 103.0 °C; in data set [4] (setting [10]), 103-104 °C. Further, the “Enthalpy of Vap. H” value in data set [5] was 76 kJ/kg.
With `FC(F)(F)C(F)(F)C(F)(F)C(F)(F)C(F)(F)C(F)(F)C(F)(F)F` [perfluoroheptane, Hexadecafluoroheptane], the Den in data set [1] is 1.75 g/mL. In addition, in data set [1], the “Specific Gravity” value is on record as 1.72. In data set [2], the Viscosity was 0.900 cPs. In addition, the “Spec Ht gas C” value in data set [3] is 0.82 KJ/Kg/C. Also, the “Spec. Ht Liq C” value in data set [3] is 0.64 KJ/Kg/C. For the same compound, the Boiling point in data set [4] (setting [9]) was 56.0 °C; in data set [4] (Table 1), 82 °C; in data set [4] (Table 2), 56.0 °C; in data set [4] (Table 4) it was 56.0 °C; in data set [4] (setting [10]) it was 80-82 °C. For the same compound, the “Enthalpy of Vap. H” value in data set [5] was 90 kJ/kg.
`FC(F)(F)C(F)(F)C(F)(F)C(F)(F)N(C(F)(F)C(F)(F)C(F)(F)C(F)(F)F)C(F)(F)C(F)(F)C(F)(F)C(F)(F)F` [perfluoro tributyl amine]: the Boiling point in data set [4] (setting [9]), in data set [4] (Table 2) and in data set [4] (Table 4) was 178 °C in each case.
Take `FC(F)C(F)(F)C(F)(F)C(F)F` [1H.4H-Perfluorobutane, Octafluorobutane]: the “Boiling point” value in data set [4] (setting [10]) is 45 °C.
Take `FC(F)(F)C(F)(F)C(F)(F)C(F)(F)C(F)(F)C(F)(F)C(F)(F)C(F)(F)C(F)(F)F` [Perfluorononane, Eicosafluorononane]: the “Specific Gravity” value in data set [1] is 1.799.
Turning to `FCC(F)(F)F` [HFA 134a ™], in data set [4] (setting [11]), the “Boiling point” value is −26.
Turning to `OCC(F)(F)C(F)(F)C(F)(F)C(F)(F)F` [1H, 1H-Perfluoro-1-pentanol, 1H, 1H-Nonafluoro-1-pentanol], the “Boiling point” value in data set [4] (setting [10]) was 110-111 °C.
Consider `OCC(F)(F)OC(F)(F)C(F)(F)OC(F)(F)C(F)(F)C(F)(F)C(F)(F)F` [1H,1H-Perfluoro-3,6-dioxadecan-1-ol], for which the “Boiling point” value in data set [4] (setting [10]) was 150 °C.
Turning to “Perfluoro(triethylene glycol dimethyl ether) [Perfluorotetraglyme]”, in data set [4] (setting [10]), the “Boiling point” value was 138 °C.
For the compound `FC(F)(F)C(F)(F)C(F)(F)C(F)(F)C(F)(F)C(F)(F)F` [C6F14], the Den in data set [1] is 1.69 g/mL. Further, the Viscosity in data set [2] was 0.979 cPs. For the same compound, in data set [3], the “Spec Ht gas C” value is 0.78 KJ/Kg/C and the “Spec. Ht Liq C” value is listed as 0.71 KJ/Kg/C. Further, the Boiling point in data set [4] (Table 1) was 69 °C. For the same compound, in data set [5], the “Enthalpy of Vap. H” value is 93 kJ/kg.
As for `FC(F)(F)C(F)(F)C(F)(F)C(F)(F)C(F)(F)C(F)(F)C(F)(F)C(F)(F)Br` [Perfluorooctylbromide], the Boiling point in data set [4] (setting [9]), in data set [4] (Table 2) and in data set [4] (Table 4) was 142 °C each time.
In the case of `FC(F)C(F)(F)C(F)(F)C(F)(F)C(F)(F)C(F)(F)C(F)(F)C(F)(F)C(F)(F)F` [1H-Perfluorononane, Nonadecafluorononane], the “Boiling point” value in data set [4] (setting [10]) was 138 °C.
For the compound `FC(F)(F)C(F)(C(F)(F)F)C(F)(C(F)(F)F)C(F)(F)F` [Perfluoro-(2,3-Dimethylbutane), 1,1,1,2,3,4,4,4-Octafluoro-2,3-bis(trifluoromethyl)butane], the “Specific Gravity” value in data set [1] was 1.7729.
As to `FC1(F)C(F)(F)C(F)(F)C2(F)C(F)(F)C(F)(F)C(F)(F)C(F)(F)C2(F)C1(F)F` (stereo not drawn) [Perfluorodecalin, Octadecafluorodecalin], in data set [1], the Den was 1.92 g/mL. The Viscosity in data set [2] is listed as 5.100 cPs. The “Spec. Ht Liq C” value in data set [3] was 1.05 KJ/Kg/C. Besides, the “Vapor Pressure” value in data set [6] is 6 torr @ 20 °C. In addition, the “O2 Solubility” value in data set [7] is listed as 49 ml/100 ml. The “Enthalpy of Vap. H” value in data set [5] is 85 kJ/kg.
With “Perfluoro(triethylene glycol dimethyl ether) [Perfluorotriglyme]”, the “Boiling point” value in data set [4] (setting [10]) was 106 °C.
As to `FC(F)(F)C(F)(F)C(F)(F)F` [perfluoropropane], the Boiling point in data set [4] (setting [9]), in data set [4] (Table 2) and in data set [4] (Table 4) was −36.7 °C in each case.
With `COC(F)(F)C(F)(F)C(F)(F)F` [methyl perfluoropropyl ether], in data set [4] (setting [9]), the Boiling point was 34 °C.
For `OCC(F)(F)F` [2,2,2-trifluoroethanol], the Boiling point in data set [4] (setting [9]) was 78 °C.
For `FC(F)C(F)(F)C(F)(F)C(F)(F)C(F)(F)C(F)(F)C(F)(F)C(F)F` [1H,8H-Perfluorooctane, Hexadecafluorooctane], the “Boiling point” value in data set [4] (setting [10]) is 134 °C.
With `FC(C(F)(F)F)C(F)(F)F` [HFA227ea ™], the “Boiling point” value in data set [4] (setting [11]) is given as −17.
Regarding `FC(F)(F)C(F)(F)C(F)(F)C(F)(F)C(F)(F)F` [perfluoropentane], the Den in data set [1] was 1.59 g/mL. The Viscosity in data set [2] was 0.460 cPs. In data set [3] (chilled aerosolized liquid), the “Specific Heat” value is 1.05 KJ/Kg*C. For the same compound, the “Spec Ht gas C” value in data set [3] is on record as 1.02 KJ/Kg/C. Moreover, the “Spec. Ht Liq C” value in data set [3] is 1.05 KJ/Kg/C. The Boiling point in data set [4] (setting [9]) is 28.0 °C; in data set [4] (Table 1) it was 30 °C; in data set [4] (Table 2), 28.0 °C; in data set [4] (Table 4), 28.0 °C; in data set [4] (running text), 30 C. The “O2 Solubility” value in data set [7] was 54 ml/100 ml. For the same compound, the “Enthalpy of Vap. H” value in data set [5] is 94 kJ/kg. The enthalpies of vaporization in data set [5] was 94 kJ/kg.
With `FC1(F)C(F)(F)C(F)(F)C2(F)C(F)(C1(F)F)C(F)(F)C(F)(F)C1(F)C(F)(F)C(F)(F)C(F)(F)C(F)(F)C12F` (stereo not drawn) [Perfluoroperhydrophenanthrene], the Boiling point in data set [4] (setting [9]), in data set [4] (Table 2) and in data set [4] (Table 4) was 215 °C throughout.
With `OCC(F)(F)OC(F)(F)C(F)(F)OC(F)(F)C(F)(F)OC(F)(F)C(F)(F)C(F)(F)C(F)(F)F` [1H,1H-Perfluoro-3,6,9-trioxatridecan-1-ol], the “Boiling point” value in data set [4] (setting [10]) is 175-176 °C.
Take `FC(F)C(F)(F)C(F)(F)C(F)(F)C(F)(F)C(F)(F)C(F)(F)F` [1H-Perfluoroheptane, Pentadecafluoroheptane]: the “Boiling point” value in data set [4] (setting [10]) is 97 °C.
Turning to `OCC(F)(F)C(F)(C(F)(F)F)C(F)(F)C(F)(F)C(F)(F)C(F)(C(F)(F)F)C(F)(F)F` (stereo not drawn) [Perfluoro-3,7-dimethyloctan-1-ol, 3,7-Bis(trifluoromethyl)tridecafluorooctanol], the Solubility entry in data set [8] is listed as “Insoluble in”. Moreover, the “Boiling point” value in data set [4] (20 mmHg) was 95° C./20.
